According to patent US20230321265A1, “KAPPA OPIOID RECEPTOR AGONIST-THERAPEUTIC ANTIGEN BINDING PROTEIN CONJUGATE (KTAC) COMPOUNDS” (Cara Therapeutics, Inc., priority 2020, published 2023):
Marks after values point to notes of the source that are not given here.

Columns and labels:
[1] = system: Human monocyte-derived macrophages; assay: Cytokine release from LPS/IFN-γ stimulated human monocyte-derived macrophages (multiplex immunoassay); type: cell-based
Experimental: Human monocyte-derived macrophages were stimulated with lipopolysaccharide (LPS) and interferon gamma (IFN-γ) in the presence and absence of CR845 or interleukin-10 (IL-10; 10 ng/mL). Cytokine release in the 18-hour supernatants was measured by multiplex immunoassay (N=4 donors per condition, with assays run in triplicate), with results expressed as mean cytokine release (± SEM) following stimulation with LPS and IFN-γ. […] The minimum effective concentration was 2.0 nM, which was the lowest concentration tested (see Table 1).
Statistical comparisons: *, P<0.05; **, P<0.01; ***, P<0.001 compared with LPS/IFN-γ alone; ##, P<0.001 compared with LPS/IFN-γ + CR845 at 50 nM §, P<0.05 compared with LPS/IFN-γ + CR845 at 50 nM; ¶, P<0.005 compared with LPS/IFN-γ; ¶¶, P<0.001 compared with LPS/IFN-γ

[2] = system: LPS-Induced Cytokine Release; assay: LPS-induced cytokine release in mice (Luminex); type: in vivo, female Balb/c mice; conditions: 30 min before LPS 1 mg/kg IP, serum 2 hr post-LPS
Source text: Data were summarized as percent reduction from vehicle-treated controls (n = 8/group). (*p<0.05 vs. vehicle; unpaired t-test).

LPS-induced TNF release = assay: LPS-induced serum TNF-alpha in mice (ELISA); type: in vivo, female Balb/c mice; conditions: 3 and 10 mg/kg SC, 30 min before LPS 1 mg/kg IP, serum 2 hours post-LPS
Experimental: FIG. 5 Reduction in LPS-induced TNF release in Mice Pretreated with SC CR845 at 1, 3 and 10 mg/kg; and separately showing a comparison of the effect of prednisone as compared with vehicle alone.
Thirty minutes later, mice were injected IP with the bacterial lipopolysaccharide (LPS, 1 mg/kg) and serum samples collected 2 hours post-LPS treatment (n = 8/group). TNF-alpha levels in serum were determined by ELISA.

[3] = system: human rheumatoid arthritis (RA) synoviocytes; assay: TNF-alpha release from human rheumatoid arthritis synoviocytes stimulated with interferon-gamma and anti-CD40 antibody; conditions: 48 hour period
Experimental: Concentrations of TNF-alpha are then measured in tissue culture supernatants by multiplex immunoassay.

[4] = system: carrageenan-induced paw swelling; assay: Carrageenan-induced paw edema in rats; type: in vivo, male SD rats
Experimental: FIG. 6: Intravenous CR845 Produces Dose-Dependent Inhibition of Carrageenan-Induced Paw Edema Formation in Rats: Chart showing paw volume after administration of vehicle alone, or vehicle plus 0.1, 0.3 or 1.0 mg/kg CR845.
In a rat model of inflammatory disease, intraplantar injection of carrageenan in one hind paw is commonly used to produce acute inflammation, resulting in the swelling of the inoculated paw (Stein, Millan et al. 1988). Animals were administered CR845 IV (tail vein, 1 mL/kg) 30 min prior to intraplantar carrageenan administration (100 µL 2% carrageenan into left hind paw; n=6/group). Paw volumes were assessed 3.5 hr post treatment (i.e., 3 hr post-carrageenan injection).

[5] = LPS/IFNγ stimulated, nor-BNI 10 nM alone, mean (SEM)
[6] = LPS/IFNγ stimulated, CR845 50 nM, 18-hour supernatant, mean (SEM)

## Oc1ccc2c3c1O[C@H]1c4[nH]c5c(c4C[C@@]4(O)[C@@H](C2)N(CC2CC2)CC[C@]314)C[C@@]1(O)[C@H]2Cc3ccc(O)c4c3[C@@]1(CCN2CC1CC1)[C@H]5O4 [nor-BNI]
[1]; [5]
  G-CSF release: 1214 (29.9) pg/mL
  IL-1 release: 39.9 (1.1) pg/mL
  IL-6 release: 803.9 (0.6) pg/mL
  IL-8 release: 1595 (13.3) pg/mL
  TNF release: 7186 (174.8) pg/mL
[1]; selective kappa opioid antagonist added to CR845
  effect of nor-BNI on the cytokine-reducing effect of CR845: blocked

## CC(C)C[C@@H](NC(=O)[C@@H](Cc1ccccc1)NC(=O)[C@H](N)Cc1ccccc1)C(=O)N[C@H](CCCCN)C(=O)N1CCC(N)(C(=O)O)CC1 [CR845, D-Phe-D-Phe-D-Leu-D-Lys-[ω(4-aminopiperidine-4carboxylic acid)]-OH]
[2]; CR845 10 mg/kg SC
  GM-CSF % Inhibition: 7%
  IL-1α % Inhibition: -37%
  IL-1β % Inhibition: 26* %
  IL-2 % Inhibition: 23* %
  IL-4 % Inhibition: 21%
  IL-6 % Inhibition: -10%
  IL-10 % Inhibition: 26%
  IL-12 (p40/p70) % Inhibition: 23* %
  MCP-1 % Inhibition: -11%
  MIP-1α % Inhibition: 19%
  MIP-1β % Inhibition: 19* %
  TNFα % Inhibition: 47* %
[1]; LPS/IFNγ stimulated, CR845 10 nM, 18-hour supernatant, mean (SEM)
  IL-6 release: 398.0 (108.4) pg/mL
[1]; [6]
  IL-6 release: 563.7 (53.9) pg/mL
  IL-8 release: 1211 (56.7) pg/mL
[1]; lowest concentration tested
  minimum effective concentration for reduction of cytokine secretion: 2.0 nM
[1]; primary human macrophages, vs. vehicle
  secretion of TNF, IL-1β, IL-6, IL-8 and GCSF following stimulation with LPS and IFN-γ: significantly reduced
LPS-induced TNF release
  serum TNF-alpha suppression: dose-dependent suppression of TNF-alpha that is statistically significant
[3]; 0.1 nM
  TNF-alpha release (CD-40/interferon-gamma stimulated release standardized to 100): 20
[3]; 0.3 nM
  TNF-alpha release (CD-40/interferon-gamma stimulated release standardized to 100): -25
[4]; IV 30 min prior to carrageenan, paw volume at 3.5 hr post-injection
  minimum effective IV dose for reduction of carrageenan-induced paw swelling: 0.3 mg/kg
[4]; IV, 0.1, 0.3 or 1.0 mg/kg, vs. vehicle
  carrageenan-induced paw swelling: significantly reduces carrageenan-induced paw swelling

## C[C@]12C=CC(=O)C=C1CC[C@@H]1[C@@H]2[C@@H](O)C[C@@]2(C)[C@H]1CC[C@]2(O)C(=O)CO [Prednisolone, prednisolone]
[2]; Prednisolone 3 mg/kg SC
  IL-1α % Inhibition: 50* %
  IL-1β % Inhibition: 39* %
  IL-2 % Inhibition: 24* %
  IL-4 % Inhibition: 41* %
  IL-6 % Inhibition: -2%
  IL-10 % Inhibition: 59* %
  IL-12 (p40/p70) % Inhibition: 45* %
  MCP-1 % Inhibition: -14%
  MIP-1α % Inhibition: 35* %
  MIP-1β % Inhibition: 19* %
  TNFα % Inhibition: 64* %

## CCCC1O[C@@H]2C[C@H]3[C@@H]4CCC5=CC(=O)C=C[C@]5(C)[C@H]4[C@@H](O)C[C@]3(C)[C@]2(C(=O)CO)O1 (stereo partly shown) [budesonide]
[3]; positive control, concentration not given
  TNF-alpha release (CD-40/interferon-gamma stimulated release standardized to 100): -25
